PubChem BioAssay AID2060895 (Molecular Pharmacology Branch, DTP, NCI, 2025)

Test system: PDC 899932-113-R3-J6 complex spheroid viability
Assay: Anticancer human tumor 899932-113-R3-J6-PDC patient-derived melanoma cell line growth inhibition [RAS]
Conditions: for IC50: curve of first compound; for viability, T/C: stronger effect = lower value
How it was run: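 Tumour cells grown as complex spheroids with HUVEC endothelial cells and mesenchymal stem cells, treated with RAS pathway inhibitor combinations. Each agent spans half-log steps from near clinical Cmax, or 10 microM where Cmax is unknown.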

[1] = second compound 0.00316 µM, first compound 0.0316 µM
[2] = second compound 0.00316 µM, first compound 0.1 µM
[3] = second compound 0.00316 µM, first compound 0.316 µM
[4] = second compound 0.00316 µM, first compound 1 µM
[5] = second compound 0.00316 µM, first compound 3.16 µM
[6] = second compound 0.00316 µM, first compound 10 µM
[7] = second compound 0.01 µM, first compound 0.0316 µM
[8] = second compound 0.01 µM, first compound 0.1 µM
[9] = second compound 0.01 µM, first compound 0.316 µM
[10] = second compound 0.01 µM, first compound 1 µM
[11] = second compound 0.01 µM, first compound 3.16 µM
[12] = second compound 0.01 µM, first compound 10 µM
[13] = second compound 0.0316 µM, first compound 0.0316 µM
[14] = second compound 0.0316 µM, first compound 0.1 µM
[15] = second compound 0.0316 µM, first compound 0.316 µM
[16] = second compound 0.0316 µM, first compound 1 µM
[17] = second compound 0.0316 µM, first compound 3.16 µM
[18] = second compound 0.0316 µM, first compound 10 µM
[19] = second compound 0.1 µM, first compound 0.0316 µM
[20] = second compound 0.1 µM, first compound 0.1 µM
[21] = second compound 0.1 µM, first compound 0.316 µM
[22] = second compound 0.1 µM, first compound 1 µM
[23] = second compound 0.1 µM, first compound 3.16 µM
[24] = second compound 0.1 µM, first compound 10 µM
[25] = second compound 0.316 µM, first compound 0.0316 µM
[26] = second compound 0.316 µM, first compound 0.1 µM
[27] = second compound 0.316 µM, first compound 0.316 µM
[28] = second compound 0.316 µM, first compound 1 µM
[29] = second compound 0.316 µM, first compound 3.16 µM
[30] = second compound 0.316 µM, first compound 10 µM
[31] = second compound 1 µM, first compound 0.0316 µM
[32] = second compound 1 µM, first compound 0.1 µM
[33] = second compound 1 µM, first compound 0.316 µM
[34] = second compound 1 µM, first compound 1 µM
[35] = second compound 1 µM, first compound 3.16 µM
[36] = second compound 1 µM, first compound 10 µM
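Wherever viability, T/C is given: spheroids exposed to agents for seven days before readout; 100% = DMSO vehicle control wells.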

## CC1(O)CCCC1n1c(=O)c(C(F)F)cc2cnc(NC3CCN(S(C)(=O)=O)CC3)nc21 (stereo unspecified) + C=CC(=O)N1CCN(c2nc(OCC3CCCN3C)nc3c(F)c(-c4nc(N)cc(C)c4C(F)(F)F)c(Cl)cc23)C(C)C1
Second compound 0.00316 µM
  IC50: 1840 nM
Second compound 0.01 µM
  IC50: 4020 nM
Second compound 0.0316 µM
  IC50: 2480 nM
Second compound 0.1 µM
  IC50: 1820 nM
Second compound 0.316 µM
  IC50: 3290 nM
Second compound 1 µM
  IC50: 3300 nM
[1]
  viability, T/C: 99%
[2]
  viability, T/C: 73.6%
[3]
  viability, T/C: 62%
[4]
  viability, T/C: 63.5%
[5]
  viability, T/C: 57.3%
[6]
  viability, T/C: 21.4%
[7]
  viability, T/C: 92%
[8]
  viability, T/C: 81.3%
[9]
  viability, T/C: 71.1%
[10]
  viability, T/C: 69.1%
[11]
  viability, T/C: 64.5%
[12]
  viability, T/C: 19.5%
[13]
  viability, T/C: 94%
[14]
  viability, T/C: 88.2%
[15]
  viability, T/C: 65.8%
[16]
  viability, T/C: 66.2%
[17]
  viability, T/C: 53.1%
[18]
  viability, T/C: 19.2%
[19]
  viability, T/C: 96.2%
[20]
  viability, T/C: 80.4%
[21]
  viability, T/C: 62.2%
[22]
  viability, T/C: 62.7%
[23]
  viability, T/C: 54.5%
[24]
  viability, T/C: 21.5%
[25]
  viability, T/C: 94.7%
[26]
  viability, T/C: 80.1%
[27]
  viability, T/C: 65%
[28]
  viability, T/C: 67.8%
[29]
  viability, T/C: 60%
[30]
  viability, T/C: 17.3%
[31]
  viability, T/C: 88.5%
[32]
  viability, T/C: 81.2%
[33]
  viability, T/C: 63.7%
[34]
  viability, T/C: 62%
[35]
  viability, T/C: 62%
[36]
  viability, T/C: 14%

## CCN1CCN(Cc2ccc(Nc3ncc(F)c(-c4cc(F)c5nc(C)n(C(C)C)c5c4)n3)nc2)CC1 + C=CC(=O)N1CCN(c2nc(OCC3CCCN3C)nc3c(F)c(-c4nc(N)cc(C)c4C(F)(F)F)c(Cl)cc23)C(C)C1
Second compound 0.00316 µM
  IC50: 414 nM
Second compound 0.01 µM
  IC50: 457 nM
Second compound 0.0316 µM
  IC50: 447 nM
Second compound 0.1 µM
  IC50: 429 nM
Second compound 0.316 µM
  IC50: 467 nM
Second compound 1 µM
  IC50: 393 nM
Second compound 0.00316 µM, first compound 0.00316 µM
  viability, T/C: 102%
Second compound 0.00316 µM, first compound 0.01 µM
  viability, T/C: 92.3%
[1]
  viability, T/C: 88.7%
[2]
  viability, T/C: 78%
[3]
  viability, T/C: 62.2%
[4]
  viability, T/C: 18.8%
Second compound 0.01 µM, first compound 0.00316 µM
  viability, T/C: 99.9%
Second compound 0.01 µM, first compound 0.01 µM
  viability, T/C: 98.5%
[7]
  viability, T/C: 95.6%
[8]
  viability, T/C: 85.5%
[9]
  viability, T/C: 63%
[10]
  viability, T/C: 22.6%
Second compound 0.0316 µM, first compound 0.00316 µM
  viability, T/C: 98.4%
Second compound 0.0316 µM, first compound 0.01 µM
  viability, T/C: 101%
[13]
  viability, T/C: 103%
[14]
  viability, T/C: 89.5%
[15]
  viability, T/C: 63%
[16]
  viability, T/C: 20.6%
Second compound 0.1 µM, first compound 0.00316 µM
  viability, T/C: 109%
Second compound 0.1 µM, first compound 0.01 µM
  viability, T/C: 94%
[19]
  viability, T/C: 85.7%
[20]
  viability, T/C: 83%
[21]
  viability, T/C: 61.2%
[22]
  viability, T/C: 24%
Second compound 0.316 µM, first compound 0.00316 µM
  viability, T/C: 101%
Second compound 0.316 µM, first compound 0.01 µM
  viability, T/C: 106%
[25]
  viability, T/C: 90.5%
[26]
  viability, T/C: 81%
[27]
  viability, T/C: 65.9%
[28]
  viability, T/C: 23.9%
Second compound 1 µM, first compound 0.00316 µM
  viability, T/C: 107%
Second compound 1 µM, first compound 0.01 µM
  viability, T/C: 104%
[31]
  viability, T/C: 93%
[32]
  viability, T/C: 72.8%
[33]
  viability, T/C: 64.3%
[34]
  viability, T/C: 18%

## C[C@@H](NC(=O)c1ncnc(N)c1Cl)c1ncc(C(=O)Nc2cc(C(F)(F)F)c(Cl)cn2)s1 + C=CC(=O)N1CCN(c2nc(OCC3CCCN3C)nc3c(F)c(-c4nc(N)cc(C)c4C(F)(F)F)c(Cl)cc23)C(C)C1
Second compound 0.00316 µM
  IC50: 6950 nM
Second compound 0.01 µM
  IC50: 7010 nM
Second compound 0.0316 µM
  IC50: 7260 nM
Second compound 0.1 µM
  IC50: 7390 nM
Second compound 0.316 µM
  IC50: 7410 nM
Second compound 1 µM
  IC50: 7600 nM
[1]
  viability, T/C: 131%
[2]
  viability, T/C: 152%
[3]
  viability, T/C: 169%
[4]
  viability, T/C: 164%
[5]
  viability, T/C: 103%
[6]
  viability, T/C: 25.8%
[7]
  viability, T/C: 140%
[8]
  viability, T/C: 153%
[9]
  viability, T/C: 153%
[10]
  viability, T/C: 154%
[11]
  viability, T/C: 106%
[12]
  viability, T/C: 25%
[13]
  viability, T/C: 121%
[14]
  viability, T/C: 143%
[15]
  viability, T/C: 157%
[16]
  viability, T/C: 154%
[17]
  viability, T/C: 104%
[18]
  viability, T/C: 29.1%
[19]
  viability, T/C: 142%
[20]
  viability, T/C: 152%
[21]
  viability, T/C: 153%
[22]
  viability, T/C: 160%
[23]
  viability, T/C: 115%
[24]
  viability, T/C: 26.9%
[25]
  viability, T/C: 136%
[26]
  viability, T/C: 136%
[27]
  viability, T/C: 168%
[28]
  viability, T/C: 161%
[29]
  viability, T/C: 108%
[30]
  viability, T/C: 29.3%
[31]
  viability, T/C: 124%
[32]
  viability, T/C: 144%
[33]
  viability, T/C: 149%
[34]
  viability, T/C: 151%
[35]
  viability, T/C: 114%
[36]
  viability, T/C: 29.9%
